Experimental data as given in patent US9353090B2, “Heterocyclic carboxylic acids as activators of soluble guanylate cyclase” (Boehringer Ingelheim International GmbH, priority 2014, dated 2016).
In brackets after ≈: the same amount, converted by molar mass.

Assays:
[1] = Human liver microsome (HLM) metabolic stability assay; type: in vitro ADME; settings: human liver microsomes
Method in brief: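 Remaining parent measured by LC/MS/MS (ESI, MRM) at 5, 15, 30 and 60 min relative to 0 min. Incubation: 1 uM compound, HLMs, NADPH-started, 37° C., 60 min total, single replicate. Slope of ln(% remaining) gives t1/2 = 0.693/slope, then CLint, CLh and % Qh.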

physchem = settings: kinetic from dmso stock
Procedure: Solubility is measured by the following method.
100 uL, 10 mM DMSO stock solution of each compound is prepared in a 96 well plate format. The experiment is done in single determination at 3 pH values (2.2, 4.5 and 6.8). For each pH and one reference, 40 uL of each compound is needed.
McIlvaine pH 2.2: To 2.076 g citric acid monohydrate and 0.043 g Na2HPO4×2H2O add 100 ml deionized water
McIlvaine pH 4.5: To 1.166 g citric acid monohydrate and 1.585 g Na2HPO4×2H2O add 100 ml deionized water
McIlvaine pH 6.8: To 0.476 g citric acid monohydrate and 2.753 g Na2HPO4×2H2O add 100 ml deionized water
With a suitable liquid handling device (Multipette® or a liquid handler) 390 uL of each buffer solution and 10 uL of compound is added to each well of a 96 deep well plate. The plates are covered firmly and shaken for 24 h on an over head shaker (at 54 RPM) at room temperature. The DMSO content in the final buffer is 2.5% v/v.
After 24 h the plates are centrifuged to remove droplets on the lid before opening (for ˜5 min at 2500 RPM).
The filtration is done under vacuum with Millipore 96 well filter plate. Filtrate is collected in a deep well plate and transferred to a suitable plate for UPLC analysis.
The reference plate is prepared by adding 10 uL of compound to 390 uL of 50:50 acetonitrile/water in a 96 deep well plate and transferred to a suitable plate for UPLC analysis. Wells are checked visually for precipitation, any presence noted under comments in reported results.
The samples are measured with UPLC-UV using the chromatographic method described below.
Waters Empower®2 software is used for generating Sample Sets (according to the plate layout), Sample Set Methods and Instrument Methods.
One Sample Set comprises the methods for three 96 well plates (one reference plate and two sample plates, and includes one Sample Set Method and one Instrument Method).
Data Processing and Analysis
The UV chromatograms collected at 254 nm are integrated and processed.
It is assumed that the compound is completely dissolved in the reference solution (50:50 acetonitrile/water)

[2] = biological target: human soluble guanylate cyclase alpha 1 and beta 1 subunits (sGC) (Homo sapiens (Human), UniProt Q02108+Q02153); assay: sGC cellular activator assay (cGMP, HTRF), in the presence and absence of 50% human serum; type: cell-based; settings: CHO cells stably expressing human sGC alpha 1/beta 1, preincubated with 40 microM ODQ; cGMP by HTRF; Table 2 does not state whether with or without 50% human serum
human soluble guanylate cyclase alpha 1 and beta 1 subunits (sGC), sequence (Q02108 whole entry partner): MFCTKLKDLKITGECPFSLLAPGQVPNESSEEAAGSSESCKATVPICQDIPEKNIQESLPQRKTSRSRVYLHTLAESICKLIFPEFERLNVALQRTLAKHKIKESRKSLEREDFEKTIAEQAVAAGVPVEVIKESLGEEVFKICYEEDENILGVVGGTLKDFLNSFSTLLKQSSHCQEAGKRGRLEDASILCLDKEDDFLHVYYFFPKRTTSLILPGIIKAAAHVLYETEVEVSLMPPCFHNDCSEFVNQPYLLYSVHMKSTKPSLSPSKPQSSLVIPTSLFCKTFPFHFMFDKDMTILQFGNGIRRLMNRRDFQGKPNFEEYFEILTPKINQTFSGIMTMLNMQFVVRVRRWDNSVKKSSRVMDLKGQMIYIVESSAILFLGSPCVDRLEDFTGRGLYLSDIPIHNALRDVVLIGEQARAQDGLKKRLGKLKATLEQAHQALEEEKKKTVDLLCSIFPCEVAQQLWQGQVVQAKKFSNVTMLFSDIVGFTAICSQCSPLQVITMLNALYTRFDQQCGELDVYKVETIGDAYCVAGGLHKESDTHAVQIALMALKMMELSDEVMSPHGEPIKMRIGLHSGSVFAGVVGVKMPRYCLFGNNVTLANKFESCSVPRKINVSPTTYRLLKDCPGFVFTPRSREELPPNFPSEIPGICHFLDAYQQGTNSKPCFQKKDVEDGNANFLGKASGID
human soluble guanylate cyclase alpha 1 and beta 1 subunits (sGC), sequence (Q02153 whole entry): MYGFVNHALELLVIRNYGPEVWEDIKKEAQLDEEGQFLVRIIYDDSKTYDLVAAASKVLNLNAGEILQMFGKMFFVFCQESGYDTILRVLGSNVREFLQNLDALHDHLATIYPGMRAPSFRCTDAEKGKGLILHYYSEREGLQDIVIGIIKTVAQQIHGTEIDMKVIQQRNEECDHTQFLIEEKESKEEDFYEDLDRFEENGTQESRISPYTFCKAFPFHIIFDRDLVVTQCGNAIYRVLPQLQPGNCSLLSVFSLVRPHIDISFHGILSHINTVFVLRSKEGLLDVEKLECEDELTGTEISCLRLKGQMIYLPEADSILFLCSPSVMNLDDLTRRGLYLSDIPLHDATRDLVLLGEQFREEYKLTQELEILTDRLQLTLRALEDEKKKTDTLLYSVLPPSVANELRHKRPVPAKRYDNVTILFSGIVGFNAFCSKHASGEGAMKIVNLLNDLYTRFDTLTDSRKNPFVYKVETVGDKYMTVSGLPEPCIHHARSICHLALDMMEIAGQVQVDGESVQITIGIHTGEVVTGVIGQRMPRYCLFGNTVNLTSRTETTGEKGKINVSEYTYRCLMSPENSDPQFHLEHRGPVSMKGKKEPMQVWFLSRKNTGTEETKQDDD
Method in brief: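 First, CHO-sGC (human α1β1) cells get 1 h ODQ at 40 microM with IBMX and 0.1% BSA. Finally, cGMP is quantified by HTRF and EC50 computed.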

[3] = pH 2.2, aqueous buffer, Solubility (pH 2.2)
[4] = pH 4.5, aqueous buffer, Solubility (pH 4.5)
[5] = pH 6.8, aqueous buffer, Solubility (pH 6.8)

SMILES | Metabolic stability (Qh %), % hepatic blood flow [1] [%] | solubility at 24 h (physchem; [3]) [µg/mL] | solubility at 24 h (physchem; [4]) [µg/mL] | solubility at 24 h (physchem; [5]) [µg/mL] | EC50 [2] [nM]
CCO[C@H]1CN(c2nccc(-c3cccc(C)c3OCc3cc4c(c(OC)c3)CN(C3CCOCC3)CC4)n2)CC[C@H]1C(=O)O [Compound 246] | <24 | 117 (≈ 190 µM) | 114 (≈ 184 µM) | 85.4 (≈ 138 µM) | 15
CCO[C@@H]1CN(c2nccc(-c3cccc(C)c3OCc3cc4c(c(OC)c3)CN(C3CCOCC3)CC4)n2)CC[C@@H]1C(=O)O [Compound 248] | <24 | 91.2 (≈ 148 µM) | 88.9 (≈ 144 µM) | 88.1 (≈ 143 µM) | 578
COc1cc(COc2c(C)cccc2-c2cccc(N3CC[C@H](C(=O)O)[C@H](OC)C3)n2)cc2c1CN(C1CCOCC1)CC2 [Compound 249] | <24 | 129 (≈ 214 µM) | 127 (≈ 211 µM) | 120 (≈ 199 µM) | 13
CO[C@H]1CN(c2cccc(-c3cccc(Cl)c3OCc3cc(C)c4c(c3)CCN(C3CCOCC3)C4)n2)CC[C@H]1C(=O)O [Compound 250] | 33 | 147 (≈ 243 µM) | 82.2 (≈ 136 µM) | 51.9 (≈ 85.6 µM) | 7
COc1cc(COc2c(Cl)cccc2-c2cccc(N3CC[C@@H](C(=O)O)[C@@H](OC)C3)n2)cc2c1CN(C1CCOCC1)CC2 [Compound 251] | 36 | 155 (≈ 249 µM) | 90.7 (≈ 146 µM) | 66.6 (≈ 107 µM) | 6
CO[C@@H]1CN(c2cccc(-c3cccc(Cl)c3OCc3cc(C)c4c(c3)CCN(C3CCOCC3)C4)n2)CC[C@@H]1C(=O)O [Compound 255] | 25 | 170 (≈ 280 µM) | 69.5 (≈ 115 µM) | 37.7 (≈ 62.2 µM) | 7
CCO[C@H]1CN(c2cccc(-c3cccc(Cl)c3OCc3cc(C)c4c(c3)CCN(C3CCOCC3)C4)n2)CC[C@H]1C(=O)O [Compound 256] | 89 | 151 (≈ 243 µM) | 82 (≈ 132 µM) | 57.1 (≈ 92.1 µM) | 3
CCO[C@H]1CN(c2cccc(-c3cccc(Cl)c3OCc3cc4c(c(OC)c3)CN(C3CCOCC3)CC4)n2)CC[C@H]1C(=O)O [Compound 257] | 85 | 164 (≈ 258 µM) | 88.2 (≈ 139 µM) | 59 (≈ 92.7 µM) | 3
CCO[C@@H]1CN(c2cccc(-c3cccc(Cl)c3OCc3cc(C)c4c(c3)CCN(C3CCOCC3)C4)n2)CC[C@@H]1C(=O)O [Compound 259] | 44 | 150 (≈ 241 µM) | 86.8 (≈ 140 µM) | 58 (≈ 93.5 µM) | 65
CCO[C@@H]1CN(c2cccc(-c3cccc(Cl)c3OCc3cc4c(c(OC)c3)CN(C3CCOCC3)CC4)n2)CC[C@@H]1C(=O)O [Compound 260] | 40 | 148 (≈ 233 µM) | 83.9 (≈ 132 µM) | 58.3 (≈ 91.6 µM) | 56
COC[C@H]1N(c2cccc(-c3cccc(C)c3OCc3ccc4c(c3F)CCN(C3CCOCC3)CC4)n2)C[C@@H]2C[C@@]21C(=O)O [Compound 262] | 25 | 133 (≈ 215 µM) | 94.9 (≈ 154 µM) | 67.4 (≈ 109 µM) | 3
COC[C@H]1N(c2cccc(-c3cccc(C)c3OCc3ccc4c(c3F)CCN(C3COC3)CC4)n2)C[C@@H]2C[C@@]21C(=O)O [Compound 263] | <24 | 122 (≈ 207 µM) | 82.8 (≈ 141 µM) | 54.4 (≈ 92.6 µM) | 7
CO[C@@H]1CN(c2nc(-c3cccc(C)c3OCc3ccc4c(c3F)CCN(C3COC3)CC4)cs2)CC[C@@H]1C(=O)O [Compound 267] | <24 | 116 (≈ 199 µM) | 60.3 (≈ 104 µM) | 59.6 (≈ 102 µM) | 7
COC[C@H]1N(c2cccc(-c3cccc(C)c3OCc3ccc4c(c3F)CCN(C3CCOC3)CC4)n2)C[C@@H]2C[C@@]21C(=O)O (some centres unmarked) [Compound 268] | 40 | 119 (≈ 198 µM) | 88.6 (≈ 147 µM) | 57.8 (≈ 96.1 µM) | 4

The next lines start with the values.

Metabolic stability (Qh %), % hepatic blood flow [1] [%] | solubility at 24 h (physchem; [3]) [µg/mL] | solubility at 24 h (physchem; [4]) [µg/mL] | solubility at 24 h (physchem; [5]) [µg/mL] | EC50 [2] [nM] | SMILES
<24 | 133 (≈ 212 µM) | 81.7 (≈ 131 µM) | 72.9 (≈ 116 µM) | 2 | COc1cc(COc2c(C)cccc2-c2csc(N3CC[C@@H](C(=O)O)[C@@H](OC)C3)n2)c(F)c2c1CN(C1CCOCC1)CC2 [Compound 252]
<24 | 127 (≈ 208 µM) | 7.7 (≈ 12.6 µM) | 1.1 (≈ 1.8 µM) | 9 | CO[C@H]1CN(c2nc(-c3cc(C)ccc3OCc3cc(C)c4c(c3F)CCN(C3CCOCC3)C4)cs2)CC[C@H]1C(=O)O [Compound 253]
26 | 118 (≈ 194 µM) | 67.5 (≈ 111 µM) | 2.9 (≈ 4.77 µM) | 14 | COc1cc(COc2ccc(C)cc2-c2csc(N3CC[C@@H](C(=O)O)[C@@H](OC)C3)n2)cc2c1CN(C1CCOCC1)CC2 [Compound 254]
29 | 116 (≈ 180 µM) | 40.7 (≈ 63.4 µM) | 38.9 (≈ 60.6 µM) | 3 | CCO[C@H]1CN(c2nc(-c3cccc(Cl)c3OCc3cc4c(c(OC)c3)CN(C3CCOCC3)CC4)cs2)CC[C@H]1C(=O)O [Compound 261]
<24 | 135 (≈ 215 µM) | 56.6 (≈ 90.1 µM) | 51.8 (≈ 82.5 µM) | 4 | COc1cc(COc2c(Cl)cccc2-c2csc(N3CC[C@@H](C(=O)O)[C@@H](OC)C3)n2)cc2c1CN(C1CCOCC1)CC2 [Compound 264]
<24 | 117 (≈ 187 µM) | 53.7 (≈ 85.5 µM) | 46.7 (≈ 74.3 µM) | 15 | COc1cc(COc2c(Cl)cccc2-c2csc(N3CC[C@H](C(=O)O)[C@H](OC)C3)n2)cc2c1CN(C1CCOCC1)CC2 [Compound 265]
<24 | 109 (≈ 179 µM) | 63.1 (≈ 103 µM) | 59.4 (≈ 97.4 µM) | 5 | CO[C@@H]1CN(c2nc(-c3cccc(C)c3OCc3ccc4c(c3F)CCN(C3CCOCC3)CC4)cs2)CC[C@@H]1C(=O)O [Compound 266]
<24 | 115 (≈ 184 µM) | 35.1 (≈ 56.3 µM) | 3 (≈ 4.81 µM) | 6 | CCO[C@@H]1CN(c2nc(-c3cc(C)ccc3OCc3cc(C)c4c(c3F)CCN(C3CCOCC3)C4)cs2)CC[C@@H]1C(=O)O [Compound 269]
38 | 114 (≈ 179 µM) | 73.4 (≈ 115 µM) | 64 (≈ 100 µM) | 2 | CCO[C@@H]1CN(c2nc(-c3cccc(C)c3OCc3cc(OC)c4c(c3F)CCN(C3CCOCC3)C4)cs2)CC[C@@H]1C(=O)O [Compound 270]
<24 | 134 (≈ 214 µM) | 66.6 (≈ 106 µM) | 32.8 (≈ 52.4 µM) | 5 | COc1cc(COc2ccc(C)cc2-c2csc(N3CC[C@@H](C(=O)O)[C@@H](OC)C3)n2)c(F)c2c1CN(C1CCOCC1)CC2 [Compound 271]
<24 | 128 (≈ 201 µM) | 54.1 (≈ 84.6 µM) | 18.5 (≈ 28.9 µM) | 2 | CCO[C@@H]1CN(c2nc(-c3cc(C)ccc3OCc3cc(OC)c4c(c3F)CCN(C3CCOCC3)C4)cs2)CC[C@@H]1C(=O)O [Compound 272]
